Earlier results as cited in patent US20240033223A1 (SICHUAN CREDIT PHARMACEUTICAL CO., LTD, priority 2020, published 2024).

Details: aqueous preparation (U.S. Pat. No. 4,925,860)

Solubility in water: water-insoluble
SMILES: O=C1NC(=O)C(c2ccccc2)(c2ccccc2)N1 [Impurity C, Phenytoin]
